System: SW 1271 complex spheroids, viability
Test: Anticancer human tumor SW 1271 cell line growth inhibition [LSD1];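 note: spheroids exposed to agents for 7 days before luminescence read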;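 for viability, T/C: 100% = DMSO vehicle control viability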
Conditions: for IC50: curve of first compound; for viability, T/C: stronger effect = lower value
Procedure, shortened: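 Complex spheroids of tumor cells with HUVEC and human MSCs, exposed to iadademstat combined with other agents. Each agent tested in half-log steps from near clinical Cmax (else 10 microM top), DMSO ≤0.25%.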

[1] = second compound 0.1 µM, first compound 0.000949 µM
[2] = second compound 0.1 µM, first compound 0.003 µM
[3] = second compound 0.1 µM, first compound 0.00949 µM
[4] = second compound 0.1 µM, first compound 0.03 µM
[5] = second compound 0.1 µM, first compound 0.0949 µM
[6] = second compound 0.1 µM, first compound 0.3 µM
[7] = second compound 0.316 µM, first compound 0.000949 µM
[8] = second compound 0.316 µM, first compound 0.003 µM
[9] = second compound 0.316 µM, first compound 0.00949 µM
[10] = second compound 0.316 µM, first compound 0.03 µM
[11] = second compound 0.316 µM, first compound 0.0949 µM
[12] = second compound 0.316 µM, first compound 0.3 µM
[13] = second compound 1 µM, first compound 0.000949 µM
[14] = second compound 1 µM, first compound 0.003 µM
[15] = second compound 1 µM, first compound 0.00949 µM
[16] = second compound 1 µM, first compound 0.03 µM
[17] = second compound 1 µM, first compound 0.0949 µM
[18] = second compound 1 µM, first compound 0.3 µM
[19] = second compound 3.16 µM, first compound 0.000949 µM
[20] = second compound 3.16 µM, first compound 0.003 µM
[21] = second compound 3.16 µM, first compound 0.00949 µM
[22] = second compound 3.16 µM, first compound 0.03 µM
[23] = second compound 3.16 µM, first compound 0.0949 µM
[24] = second compound 3.16 µM, first compound 0.3 µM
[25] = second compound 10 µM, first compound 0.000949 µM
[26] = second compound 10 µM, first compound 0.003 µM
[27] = second compound 10 µM, first compound 0.00949 µM
[28] = second compound 10 µM, first compound 0.03 µM
[29] = second compound 10 µM, first compound 0.0949 µM
[30] = second compound 10 µM, first compound 0.3 µM

Question: How did the IC50 (second compound 0.1 µM) turn out when `CCc1c2c(nc3ccc(O)cc13)-c1cc3c(c(=O)n1C2)COC(=O)[C@]3(O)CC` + NC1CCC(NC2CC2c2ccccc2)CC1 was run?
Answer: The IC50 was 3.54 nM.

Question: What about the IC50 (second compound 0.316 µM) of the same compound?
Answer: Its IC50 is 1.7 nM.

Question: And the IC50 (second compound 1 µM)?
Answer: Its IC50 is 3.54 nM.

Question: And the IC50 (second compound 3.16 µM)?
Answer: The IC50 was 2.36 nM.

Question: And the IC50 (second compound 10 µM)?
Answer: Its IC50 is 1.83 nM.

Question: And the viability, T/C [1]?
Answer: Its viability, T/C is 59.3%.

Question: And the viability, T/C [2]?
Answer: The viability, T/C was 53.9%.

Question: What about the viability, T/C [3] of the same compound?
Answer: The viability, T/C was 26.8%.

Question: What about the viability, T/C [4] of the same compound?
Answer: Its viability, T/C is 8.08%.

Question: And the viability, T/C [5]?
Answer: The viability, T/C was 5.77%.

Question: And the viability, T/C [6]?
Answer: The viability, T/C was 5.6%.

Question: And the viability, T/C [7]?
Answer: The viability, T/C was 57.5%.

Question: And the viability, T/C [8]?
Answer: The viability, T/C was 42.2%.

Question: What about the viability, T/C [9] of the same compound?
Answer: Its viability, T/C is 26%.

Question: And the viability, T/C [10]?
Answer: The viability, T/C was 9.7%.

Question: What about the viability, T/C [11] of the same compound?
Answer: The viability, T/C was 8.55%.

Question: What about the viability, T/C [12] of the same compound?
Answer: The viability, T/C was 3.31%.

Question: And the viability, T/C [13]?
Answer: The viability, T/C was 56.9%.

Question: What about the viability, T/C [14] of the same compound?
Answer: The viability, T/C was 52.8%.

Question: What about the viability, T/C [15] of the same compound?
Answer: Its viability, T/C is 31.5%.

Question: What about the viability, T/C [16] of the same compound?
Answer: Its viability, T/C is 8.11%.

Question: And the viability, T/C [17]?
Answer: The viability, T/C was 5.83%.

Question: What about the viability, T/C [18] of the same compound?
Answer: Its viability, T/C is 3.46%.

Question: What about the viability, T/C [19] of the same compound?
Answer: Its viability, T/C is 57.8%.

Question: And the viability, T/C [20]?
Answer: Its viability, T/C is 46.5%.

Question: What about the viability, T/C [21] of the same compound?
Answer: Its viability, T/C is 26.4%.

Question: And the viability, T/C [22]?
Answer: Its viability, T/C is 7.18%.

Question: What about the viability, T/C [23] of the same compound?
Answer: The viability, T/C was 5.59%.

Question: What about the viability, T/C [24] of the same compound?
Answer: Its viability, T/C is 19.2%.

Question: And the viability, T/C [25]?
Answer: Its viability, T/C is 52.4%.

Question: What about the viability, T/C [26] of the same compound?
Answer: Its viability, T/C is 48%.

Question: And the viability, T/C [27]?
Answer: The viability, T/C was 27.9%.

Question: And the viability, T/C [28]?
Answer: Its viability, T/C is 7.16%.

Question: And the viability, T/C [29]?
Answer: The viability, T/C was 5.27%.

Question: And the viability, T/C [30]?
Answer: Its viability, T/C is 3.36%.

Question: `Nc1ccn(C2OC(CO)C(O)C2(F)F)c(=O)n1` (stereo not given) + NC1CCC(NC2CC2c2ccccc2)CC1 was tested. Which IC50 (second compound 0.1 µM) did it give?
Answer: The IC50 was over 300 nM.

Question: What about the IC50 (second compound 0.316 µM) of the same compound?
Answer: Its IC50 is over 300 nM.

Question: What about the IC50 (second compound 1 µM) of the same compound?
Answer: The IC50 was over 300 nM.

Question: What about the IC50 (second compound 3.16 µM) of the same compound?
Answer: Its IC50 is over 300 nM.

Question: And the IC50 (second compound 10 µM)?
Answer: Its IC50 is over 300 nM.

Question: What about the viability, T/C [1] of the same compound?
Answer: Its viability, T/C is 83.3%.

Question: And the viability, T/C [2]?
Answer: The viability, T/C was 69.4%.

Question: And the viability, T/C [3]?
Answer: Its viability, T/C is 62.5%.

Question: What about the viability, T/C [4] of the same compound?
Answer: The viability, T/C was 59.5%.

Question: And the viability, T/C [5]?
Answer: The viability, T/C was 69.3%.

Question: What about the viability, T/C [6] of the same compound?
Answer: Its viability, T/C is 71.4%.

Question: And the viability, T/C [7]?
Answer: The viability, T/C was 73.8%.

Question: And the viability, T/C [8]?
Answer: Its viability, T/C is 71.2%.

Question: And the viability, T/C [9]?
Answer: Its viability, T/C is 76.2%.

Question: What about the viability, T/C [10] of the same compound?
Answer: The viability, T/C was 61.3%.

Question: What about the viability, T/C [11] of the same compound?
Answer: The viability, T/C was 62.7%.

Question: And the viability, T/C [12]?
Answer: Its viability, T/C is 59.6%.

Question: What about the viability, T/C [13] of the same compound?
Answer: The viability, T/C was 80.7%.

Question: What about the viability, T/C [14] of the same compound?
Answer: The viability, T/C was 64.6%.

Question: And the viability, T/C [15]?
Answer: Its viability, T/C is 59.8%.

Question: And the viability, T/C [16]?
Answer: Its viability, T/C is 66.3%.

Question: What about the viability, T/C [17] of the same compound?
Answer: The viability, T/C was 56.1%.

Question: What about the viability, T/C [18] of the same compound?
Answer: The viability, T/C was 59.4%.

Question: And the viability, T/C [19]?
Answer: Its viability, T/C is 67.5%.

Question: What about the viability, T/C [20] of the same compound?
Answer: The viability, T/C was 68.4%.

Question: What about the viability, T/C [21] of the same compound?
Answer: Its viability, T/C is 84.5%.

Question: What about the viability, T/C [22] of the same compound?
Answer: The viability, T/C was 59.8%.

Question: What about the viability, T/C [23] of the same compound?
Answer: The viability, T/C was 60.5%.

Question: What about the viability, T/C [24] of the same compound?
Answer: Its viability, T/C is 63%.

Question: And the viability, T/C [25]?
Answer: The viability, T/C was 83.7%.

Question: What about the viability, T/C [26] of the same compound?
Answer: Its viability, T/C is 64.3%.

Question: What about the viability, T/C [27] of the same compound?
Answer: Its viability, T/C is 62.5%.

Question: What about the viability, T/C [28] of the same compound?
Answer: The viability, T/C was 68.6%.

Question: What about the viability, T/C [29] of the same compound?
Answer: The viability, T/C was 60.7%.

Question: What about the viability, T/C [30] of the same compound?
Answer: Its viability, T/C is 64.9%.

From PubChem BioAssay AID1918941 (Molecular Pharmacology Branch, DTP, NCI, 2023)
